{"source": "patent US20230114241A1", "about": "“METHODS OF TREATING EPILEPSY USING THE SAME” (Trevena, Inc., priority 2019, published 2023)"}
{"biological_target": "human sphingosine-1-phosphate receptor 1 (S1P1) (Homo sapiens, UniProt P21453)", "sequence (P21453 whole entry)": "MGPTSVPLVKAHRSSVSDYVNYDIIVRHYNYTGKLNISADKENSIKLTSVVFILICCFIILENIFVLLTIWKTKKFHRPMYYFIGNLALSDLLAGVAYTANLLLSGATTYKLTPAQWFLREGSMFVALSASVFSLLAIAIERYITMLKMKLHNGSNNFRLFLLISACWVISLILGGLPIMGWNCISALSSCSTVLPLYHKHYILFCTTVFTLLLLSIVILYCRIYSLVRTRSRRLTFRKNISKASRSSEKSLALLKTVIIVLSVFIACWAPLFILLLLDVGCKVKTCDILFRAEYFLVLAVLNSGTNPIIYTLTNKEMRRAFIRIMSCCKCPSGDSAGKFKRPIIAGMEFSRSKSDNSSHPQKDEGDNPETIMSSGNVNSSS", "experiment": "Inhibition of cAMP production (HTRF cAMP HiRange), S1P1 CHO-K1 cells", "type": "cell-based", "details": "inhibition of cAMP production, S1P1; read-out: hS1P1 CAMP pEC50 (converted)", "method": "(§1) Stable clonal Chinese hamster ovary K1 (CHO-K1) cells co-expressing EA-β-arrestin2 and the human sphingosine-1-phosphate receptor 1 (NM_001400, S1P1) with a C-terminal Prolink™ tag were purchased from DiscoverX corporation (Cat #: 93-0207C2).\n(§2) Cell lines were cultured in AssayComplete™ Media 6 (DiscoverX Corporation, Cat #: 920018GF2) at 37° C. and 5% CO2 in a humidified CO2 and temperature-controlled incubator. To begin assay plating, cells were washed with Dulbecco's phosphate buffered saline (CellGro, Cat #: 21-031-CV) and lifted from the culturing flask by incubation (37° C., 5 min) with CellStripper (Cellgro, Cat #: 25-056-CI). […] Plated cells were incubated overnight at 37° C. and 5% CO2 in a humidified CO2 and temperature-controlled incubator.\n(§3) Agonist-promoted G-protein responses were determined by measuring changes in intracellular cAMP using the HTRF® cAMP HiRange kit (CisBio, Cat #: 62AM6PEJ) based on time-resolved fluorescence resonance energy transfer (TR-FRET) technology. […] Following a 30-minute incubation at 37° C. and 5% CO2 in a humidified CO2 and temperature-controlled incubator, the components of the cAMP HiRange kit were added as per the manufacturer's instructions. After an hour incubation at room temperature, plates were analyzed by a BMG PheraStar microplate reader.\n(§4) These values are normalized to fingolimod, a known agonist of the sphingosine-1-phosphate 1 receptor.", "units": {"EC50": "nM"}}
{"compound": "COc1cc(NC(C)=O)ccc1-c1noc(-c2ccc3c(c2)nnn3C(C)C)n1", "note": "[Compound 532, N-(3-methoxy-4-{5-[1-(propan-2-yl)-1H-1,2,3-benzotriazol-5-yl]-1,2,4-oxadiazol-3-yl}phenyl)acetamide]", "EC50": "< 316"}
{"compound": "N#Cc1cc(-c2nc(-c3ccc4sc(N)nc4c3)no2)ccc1NCC1CC1", "note": "[Compound 440, 5-(3-(2-aminobenzo[d]thiazol-5-yl)-1,2,4-oxadiazol-5-yl)-2-((cyclopropylmethyl)amino)benzonitrile]", "EC50": "< 316"}
{"compound": "COCCn1cc(-c2ccccc2C)cc1-c1ccc2c(c1)nnn2C(C)C", "note": "[Compound 534, 5-[1-(2-methoxyethyl)-4-(2-methylphenyl)-1H-pyrrol-2-yl]-1-(propan-2-yl)-1H-1,2,3-benzotriazole]", "EC50": "> 316"}
{"compound": "COc1cccc2nc(-c3ccc4c(c3)nnn4C(C)C)oc12", "note": "[Compound 515, 2-(1-isopropyl-1H-benzo[d][1,2,3]triazol-5-yl)-7-methoxy-benzo[d]oxazole]", "EC50": "< 316"}
{"compound": "CCC1(CC)CC(=O)c2cc(-c3nc(-c4ccc5sc(N)nc5c4)no3)ccc2O1", "note": "[Compound 446, 6-(3-(2-aminobenzo [d]thiazol-5-yl)-1,2,4-oxadiazol-5-yl)-2,2-diethylchroman-4-one]", "EC50": "> 316"}
{"compound": "COc1ccc2oc(-c3ccc4c(c3)nnn4CC(C)C)nc2c1", "note": "[Compound 451, 2-(1-isobutyl-1H-benzo[d][1,2,3]triazol-5-yl)-5-methoxy-benzo[d]oxazole]", "EC50": "< 316"}
{"compound": "CC(C)n1nnc2cc(-c3c[nH]c(-c4ccccc4)c3)ccc21", "note": "[Compound 543, 5-(5-phenyl-1H-pyrrol-3-yl)-1-(propan-2-yl)-1H-1,2,3-benzotriazole]", "EC50": "< 316"}
{"compound": "CC(C)n1nnc2cc(-c3nc(-c4ccccc4C(F)(F)F)co3)ccc21", "note": "[Compound 432, 1-(propan-2-yl)-5-{4-[2-(trifluoromethyl)phenyl]-1,3-oxazol-2-yl}-1H-1,2,3-benzotriazole]", "EC50": "< 316"}
{"biological_target": "human sphingosine-1-phosphate receptor 1 (S1P1) (Homo sapiens, UniProt P21453)", "experiment": "Inhibition of cAMP production (HTRF cAMP HiRange), S1P1 CHO-K1 cells", "type": "cell-based", "details": "inhibition of cAMP production; potency; read-out: hS1P1 CAMP pEC50 (converted)", "method": "as §1, §2, §3, §4", "units": {"EC50": "nM"}}
{"compound": "CC(C)n1ncc2cc(-c3nc(-c4ccccc4Cl)no3)ccc21", "note": "[Compound 330, 3-(2-chlorophenyl)-5-(1-isopropyl-1H-indazol-5-yl)-1,2,4-oxadiazole]", "EC50": "< 316"}
{"compound": "CCC1(CC)CC(=O)c2cc(-c3nc(-c4ccc(O)cc4)no3)ccc2O1", "note": "[Compound 72, 2,2-diethyl-6-[3-(4-hydroxyphenyl)-1,2,4-oxadiazol-5-yl]chroman-4-one]", "EC50": "< 316"}
{"compound": "C=C(F)CNc1ccc(-c2nc(-c3ccc4c(c3)CCC(=O)N4)no2)cc1C#N", "note": "[Compound 346, 2-[(2-fluoroprop-2-en-1-yl)amino]-5-[3-(2-oxo-1,2,3,4-tetrahydro-quinolin-6-yl)-1,2,4-oxadiazol-5-yl]benzonilrile]", "EC50": "< 316"}
{"compound": "C=CCNc1ccc(-c2nc(-c3ccc(NS(C)(=O)=O)cc3)no2)cc1C#N", "note": "[Compound 149, N-(4-(5-(4-(allylamino)-3-cyanophenyl)-1,2,4-oxadiazol-3-yl)phenyl) methanesulfonamide]", "EC50": "< 316"}
{"compound": "C=CCNc1ccc(-c2nc(-c3ccc4[nH]cnc4c3)no2)cc1C#N", "note": "[Compound 177, 5-(3-(1H-benzo[d]imidazol-5-yl)-1,2,4-oxadiazol-5-yl)-2-(allylamino)benzonitrile]", "EC50": "< 316"}
{"compound": "COc1cccc(OC)c1-c1noc(-c2ccc3c(cnn3C(C)C)c2)n1", "note": "[Compound 335, 3-(2,6-dimethoxy-phenyl)-5-(1-isopropylindazol-5-yl)-1,2,4-oxadiazole]", "EC50": "> 316"}
{"compound": "COc1cc(-c2nc(-c3ccc4c(c3)nnn4C(C)C)no2)ccn1", "note": "[Compound 116, 3-(1-isopropyl-1H-benzo[d][1,2,3]triazol-5-yl)-5-(2-methoxypyridin-4-yl)-1,2,4-oxadiazole]", "EC50": "> 316"}
{"compound": "CCC1(CC)CC(=O)c2cc(-c3nnc(-c4ccc5c(c4)nnn5C(C)C)o3)ccc2O1", "note": "[Compound 223, 2,2-diethyl-6-(5-(1-isopropyl-1H-benzo[d][1,2,3]triazol-5-yl)-1,3,4-oxadiazol-2-yl)chroman-4-one]", "EC50": "> 316"}
{"compound": "CC(C)n1ncc2cc(-c3nc(-c4cccc5c4OCCC5)no3)ccc21", "note": "[Compound 337, 3-chroman-8-yl-5-(1-isopropylindazol-5-yl)-1,2,4-oxadiazole]", "EC50": "< 316"}
{"compound": "CC(C)n1nnc2cc(-c3nc(-c4ccc(OCc5ccccc5)c(C(F)(F)F)c4)no3)ccc21", "note": "[Compound 296, 5-{3-[4-(benzyloxy)-3-(trifluoromethyl)phenyl]-1,2,4-oxadiazol-5-yl}-1-(propan-2-yl)-1H-1,2,3-benzotriazole]", "EC50": "> 316"}
{"compound": "Cc1ccccc1-c1noc(-c2ccc3nnn(C(C)C)c3c2)n1", "note": "[Compound 308, 6-[3-(2-methylphenyl)-1,2,4-oxadiazol-5-yl]-1-(propan-2-yl)-1H-1,2,3-benzotriazole]", "EC50": "> 316"}
{"compound": "CCC1(CC)CC(=O)c2cc(-c3nc(-c4ccc(NS(C)(=O)=O)cc4)no3)ccc2O1", "note": "[Compound 262, N-(4-(5-(2,2-diethyl-4-oxochroman-6-yl)-l,2,4-oxadiazol-3-yl)phenyl)methane-sulfonamide]", "EC50": "< 316"}
{"compound": "CC(C)Oc1ccccc1-c1noc(-c2ccc3c(ccn3C(C)C)c2)n1", "note": "[Compound 324, 3-(2-isopropoxyphenyl)-5-(1-isopropyl-1H-indol-5-yl)-1,2,4-oxadiazole]", "EC50": "> 316"}
{"compound": "CC1(C)CCC2(CC1)CC(=O)c1cc(-c3nc(-c4cccnc4)no3)ccc1O2", "note": "[Compound 58, 4′,4′-dimethyl-6-[3-(pyridin-3-yl)-1,2,4-oxadiazol-5-yl]-3,4-dihydrospiro[1-benzopyran-2,1′-cyclohexane]-4-one]", "EC50": "> 316"}
{"compound": "O=C1CC2(CCOCC2)Oc2ccc(-c3nc(-c4cccnc4)no3)cc21", "note": "[Compound 214, 6-[3-(pyridin-3-yl)-1,2,4-oxadiazol-5-yl]-3,4-dihydrospiro[1-benzopyran-2,4′-oxane]-4-one]", "EC50": "> 316"}
{"compound": "CCC1(CC)CC(=O)c2cc(-c3nc(-c4ccncc4OC)no3)ccc2O1", "note": "[Compound 212, 2,2-diethyl-6-(3-(3-methoxypyridin-4-yl)-1,2,4-oxadiazol-5-yl)chroman-4-one]", "EC50": "< 316"}
{"compound": "Cc1cc(-c2nc(-c3ccc4c(c3)nnn4C(C)C)no2)cc(C)n1", "note": "[Compound 156, 5-(2,6-dimethyl-pyridin-4-yl)-3-(1-isopropyl-1H-benzo[d][1,2,3]triazol-5-yl)-1,2,4-oxadiazole]", "EC50": "< 316"}
{"compound": "CC(C)n1nnc2cc(-c3noc(-c4ccc(COc5ccccc5)cc4)n3)ccc21", "note": "[Compound 131, 3-(1-isopropyl-1H-benzo[d][1,2,3]triazol-5-yl)-5-(4-(phenoxy-methyl)phenyl)-1,2,4-oxadiazole]", "EC50": "> 316"}
{"compound": "Cc1ccncc1-c1noc(-c2ccc3c(c2)nnn3C2CC2)n1", "note": "[Compound 94, 1-cyclopropyl-5-[3-(4-methylpyridin-3-yl)-1,2,4-oxadiazol-5-yl]-1H-1,2,3-benzotriazole]", "EC50": "> 316"}
{"compound": "CC(C)n1nnc2cc(-c3noc(-c4ccccc4C#N)n3)ccc21", "note": "[Compound 279, 2-(3-(1-isopropyl-1H-benzo[d][1,2,3]triazol-5-yl)-1,2,4-oxadiazol-5-yl)benzonitrile]", "EC50": "> 316"}
{"compound": "CCC1(CC)CC(=O)c2cc(-c3nc(-c4ccc(C)cc4)no3)ccc2O1", "note": "[Compound 269, 2,2-diethyl-6-[3-(p-tolyl)-1,2,4-oxadiazol-5-yl]chroman-4-one]", "EC50": "> 316"}
